Test [1] concerns the target T1, Carbonate dehydratase (Sulfurihydrogenibium sp. (strain YO3AOP1), UniProt B2V8E3).
T1 sequence (B2V8E3 whole entry): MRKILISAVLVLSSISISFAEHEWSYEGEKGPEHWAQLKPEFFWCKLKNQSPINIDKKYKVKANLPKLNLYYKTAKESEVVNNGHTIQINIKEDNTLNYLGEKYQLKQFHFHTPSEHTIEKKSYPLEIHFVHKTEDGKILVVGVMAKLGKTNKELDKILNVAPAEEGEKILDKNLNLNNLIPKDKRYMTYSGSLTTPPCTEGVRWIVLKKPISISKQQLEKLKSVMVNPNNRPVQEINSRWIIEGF
Description: Inhibition of recombinant Sulfurihydrogenibium yellowstonense YO3AOP1 carbonic anhydrase by stopped flow CO2 hydrase assay

Test [2] addresses Carbonic anhydrase, alpha family (Thiomicrospira crunogena, UniProt Q31FD6).
Description: Inhibition of recombinant Thiomicrospira crunogena XCL-2 carbonic anhydrase by stopped flow CO2 hydrase assay

For 29 molecules, Ki results are on record in ChEMBL document CHEMBL3745715, “Sulfonamide inhibition studies of the α-carbonic anhydrase from the gammaproteobacterium Thiomicrospira crunogena XCL-2, TcruCA” (Bioorg Med Chem Lett, 2016).

What is called Ki is a measure of affinity in units of concentration, obtained from inhibition or displacement.

Sequence of Carbonic anhydrase, alpha family (Q31FD6 whole entry): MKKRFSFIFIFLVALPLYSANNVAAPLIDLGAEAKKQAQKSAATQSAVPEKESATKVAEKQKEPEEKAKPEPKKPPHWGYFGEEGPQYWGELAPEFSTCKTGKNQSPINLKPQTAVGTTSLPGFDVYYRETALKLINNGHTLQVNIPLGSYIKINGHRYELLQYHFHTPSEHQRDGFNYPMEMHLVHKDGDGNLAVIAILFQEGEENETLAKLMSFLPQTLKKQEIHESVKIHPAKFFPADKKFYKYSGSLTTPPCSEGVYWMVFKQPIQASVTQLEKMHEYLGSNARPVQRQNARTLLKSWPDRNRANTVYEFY

In the case of `NNc1ccccc1S(N)(=O)=O`, the Ki was 695 nM in test [1] and 71.4 nM in test [2].

On to `Nc1nnc(S(N)(=O)=O)s1`, for which the Ki was 137 nM in test [1] and 27.9 nM in test [2].

Regarding `Nc1ccc(S(=O)(=O)NCc2ccc(S(N)(=O)=O)cc2)cc1`, the Ki turned out to be 7.8 nM in test [1] and 454 nM in test [2].

As to `Nc1cc(Cl)c(S(N)(=O)=O)cc1S(N)(=O)=O`, the Ki in test [2] came out at 54.4 nM.

Take `Nc1ccc(S(N)(=O)=O)cc1I`: in test [1], the affinity, expressed as Ki, was 44.8 nM.

As to `Nc1ccc(S(=O)(=O)Nc2nnc(S(N)(=O)=O)s2)cc1`, the Ki in test [1] amounted to 5.5 nM; in test [2] it was 5.6 nM.

Regarding `NS(=O)(=O)c1nnc(-c2ccccc2Cl)s1`, the inhibitory constant (Ki) was 70.1 nM in test [1] and 2.5 nM in test [2].

With `Nc1nccc(Nc2ccc(S(N)(=O)=O)cc2)n1`, the Ki came out at 6.5 nM in test [1] and 92.3 nM in test [2].

With `NS(=O)(=O)c1nc2ccc(O)cc2s1`, the Ki in test [2] worked out at 40.7 nM. This counts as double-digit nanomolar.

With `Nc1ccc(S(N)(=O)=O)cc1Br`, the Ki in test [1] was found to be 75.7 nM; in test [2], 545 nM.

Regarding `Cn1nc(S(N)(=O)=O)sc1=N`, the Ki in test [1] amounted to 433 nM; in test [2], 4.8 nM.

Consider `NS(=O)(=O)c1ccc(CCO)cc1`, for which the Ki in test [1] stood at 162 nM; in test [2], 31.5 nM.

Regarding `Nc1ccc(S(N)(=O)=O)cc1F`, the values for the Ki in test [1] and in test [2] were 68.3 nM and 82.1 nM, respectively.

Consider `NS(=O)(=O)c1ccc(CO)cc1`, for which the values for the Ki in test [1] and in test [2] were 493 nM and 21.2 nM, respectively.

For the molecule `NCCc1ccc(S(N)(=O)=O)cc1`, the Ki in test [2] was found to be 488 nM.

As to `Nc1ccc(S(N)(=O)=O)cc1Cl`, the Ki in test [1] came out at 41.2 nM; in test [2] it was 79.7 nM.

`Nc1ccc(S(=O)(=O)NCCc2ccc(S(N)(=O)=O)cc2)cc1`: the Ki was 9.7 nM in test [1] and 402 nM in test [2].

In the case of `NNc1ccc(S(N)(=O)=O)cc1`, the figures for the Ki in test [1] and in test [2] were 803 nM and 84.5 nM, respectively.

On to `Nc1cc(C(F)(F)F)c(S(N)(=O)=O)cc1S(N)(=O)=O` [2,4-DISULFAMYLTRIFLUOROMETHYLANILINE], for which, in test [2], the affinity corresponds to a Ki of 67.2 nM.

In test [2], `NS(=O)(=O)c1nnc(NS(=O)(=O)c2ccccc2)s1` [BENZOLAMIDE] returned an inhibitory constant (Ki) of 2.7 nM. This Ki is about 25-fold lower than that of the molecule before.

With `CCN[C@H]1CN(CCCOC)S(=O)(=O)c2sc(S(N)(=O)=O)cc21` [BRINZOLAMIDE], the Ki in test [1] was found to be 12.3 nM; in test [2] it was 4.2 nM.

For `NS(=O)(=O)c1ccc(C(=O)O)cc1` [CARZENIDE], the Ki worked out at 72.4 nM in test [1] and 85.2 nM in test [2].

On to `Cc1ccc(-c2cc(C(F)(F)F)nn2-c2ccc(S(N)(=O)=O)cc2)cc1` [CELECOXIB], for which the values for the Ki in test [1] and in test [2] were 6.9 nM and 981 nM, respectively.

For `CCOc1ccc2nc(S(N)(=O)=O)sc2c1` [ETHOXZOLAMIDE], in test [2], the inhibition constant (Ki) stood at 4.1 nM.

On to `NCc1ccc(S(N)(=O)=O)cc1` [MAFENIDE], for which the Ki came out at 350 nM in test [1] and 202 nM in test [2].

For `Cc1ccc(S(N)(=O)=O)cc1` [P-TOLUENESULFONAMIDE], the Ki in test [1] amounted to 848 nM; in test [2] it was 244 nM.

Regarding `O=C1NS(=O)(=O)c2ccccc21` [SACCHARIN], the Ki stood at 876 nM in test [1] and 933 nM in test [2].

Regarding `Nc1ccc(S(N)(=O)=O)cc1` [SULFANILAMIDE], the values for the Ki in test [1] and in test [2] were 652 nM and 628 nM, respectively.

For the molecule `CC1(C)O[C@@H]2[C@@H](CO[C@@]3(COS(N)(=O)=O)OC(C)(C)O[C@@H]23)O1` [TOPIRAMATE], the Ki came to 6.6 nM in test [1] and 769 nM in test [2].
